Patent US6468983B2, “RNase L activators and antisense oligonucleotides effective to treat telomerase-expressing malignancies” (The Cleveland Clinic Foundation, priority 1997, dated 2002)
Values joined by “and” are separate entries in the source; they are usually repeats but may differ in a detail not shown here. Equal entries are not always repeated. “Also recorded” adds a separate entry of the source.

Experiments:
[1] = tested on: intracranial U373-MG tumors; test: Survival of mice with intracranial malignant glioma, intracranial injection; format: in vivo, Balb/c nude mice
Protocol: To establish murine models with intracranial tumors of U373-MG human malignant glioma cells, Balb/c nude mice were used. Mice (8-12 week-old male) were anesthetized using ketamine (90 mg/kg) and xylazine (10 mg/kg) and placed in a stereotaxic frame (Lab Standard w/18 Degree Earbars, Stoelting, Wood Dale, Ill.). Inoculation of 5×10^5 tumor cells (10 microliter of a tumor cell suspension of 5×10^7/ml in serum free DMEM [0.5 ml] and matrigel [0.5 ml]) was performed transcranially using a 27-gauge stainless-steel needle and microliter syringe (Perfectum, Popper & Sons, Inc., New Hyde Park, N.Y.). The needle insertion was in the skull 1 mm anterior and.2 mm lateral to the bregma and the depth of insertion was 4 mm from the skull (the caudate nucleus). The needle was left in place for 3 min and then withdrawn slowly over another minute. Two weeks after inoculation of tumor cells, mice were deeply anesthetized with ketamine/xylazine, and sacrificed by transcardiac perfusion with 4% formaldehyde. The brains were then sliced to include the injection site, and 12 μm sections were made for histological analysis. To determine the effect of 2-5A-anti-hTR on intracranial tumors, spA4-anti-hTR (3 nmol/10 microliter distilled water/3 microliter Lipofectamine, three times) was injected intracranially into the tumors via the same coordinates three weeks after inoculation of tumor cells (on Days 21, 23, and 25).

U251-MG tumors = test: Subcutaneous xenografts in nude mice, intratumoral oligonucleotide; format: in vivo, Balb/c nude mice; settings: for reduction in tumor size during the treatment period: intratumoral daily for 14 days, relative to starting size
Protocol: (§1) U251-MG and U373 MG tumor cells (1.0×10^6 cells in 0.1 ml serum free DMEM and 0.1 ml Matrigel) were injected subcutaneously into the right flank of 8-12 week-old female Balb/c nude mice (5 mice for each treatment group). Tumor growth was monitored using calipers every 2- or 3-days. Tumor volume (V) was calculated as (L×W^2)/2, where L=length (mm) and W=width (mm). Oligonucleotide treatment was initiated when the tumors reached an average tumor volume of 60-100 mm^3 (about four to five weeks after injection). Oligonucleotides (5 nmol/20 microliter sterile distilled water) were administered by injecting them directly into the tumor every 24 hr for 7-14 days. Some experiments included lipofectamine at 1 microliter per 20 microliters final volume of oligonucleotide solution. Mice were sacrificed by cervical dislocation the day after the final injection and the tumors were removed, frozen rapidly and 12 μm sections were prepared for histological studies. During all of these experiments, which were approved by the CCF Research Programs Committee, the animals were housed and handled in accordance with the National Institutes of Health guidelines.

U373-MG tumors = test: as above; format: in vivo, Balb/c nude mice; settings: 5 nmol intratumoral daily for 7 days
Protocol: as §1

U373 cells = test: Viable cell count (trypan blue), daily oligonucleotide plus lipofectamine; format: cell-based, human
Protocol: Cells (10,000/well) were seeded on 96 well tissue culture dishes, and treated every 24 hours. A 10× concentrated mixture of oligonucleotides plus lipofectamine in water was prepared containing 5 micromolar oligonucleotide and 80 microgram per ml lipofectamine™ (Gibco/BRL) and incubated for 10 min at room temperature. Media was removed from the cells, 10 microliters of the oligonucleotide/lipofectamine mixture was added directly to the cultured cells followed by 90 microliters of media plus serum. The media was changed with oligonucleotide/lipofectamine treatments every 24 h. Cells were passaged when the control cells reached confluency, and viable cells were counted after staining with Trypan Blue (GibcoBRL). The numbers of cells treated only with lipofectamine were used as the control to calculate percentages of cell survival or viability.

U251-MG cells = test: Cell viability assay, trypan blue dye exclusion, oligonucleotide in water every 12 hr; format: cell-based, human; settings: 5 micromolar every 12 hr
Protocol: The cytotoxic effect of 2-5A activator antisense complexes on tumor cells was determined using the trypan blue dye exclusion assay. Tumor cells were seeded at 10^4 cells/well (0.1 ml) in 96-well flat-bottomed plates and incubated overnight at 37° C. Then, oligonucleotides (5 micromolar) in water were added into cells every 12 hr. On successive days the cells were harvested and 25% of the total was examined microscopically to determine the percentage of viable cells, another 25% was replated to continue treatment and the remaining 50% were used for the TRAP assay.
Knowing that hTR could be inactivated by the 2-5A antisense treatment, U251-MG cells were treated every 12 hours over a 14 day period with the same three oligonucleotides. 79% of the cells treated with spA4-anti-hTR were killed over the 14 day period with a significant (50%) reduction in cell viability after only 5 days. […] These experiments have since been repeated on a number of occasions with U251-MG cells to test new batches of oligonucleotides, always with the same results. […] Thus, after 14 days from the initial treatment with spA4-anti-hTR, the viability of U251-MG cells, as shown by Trypan-blue exclusion assays, was suppressed in all cases.

RCC tumors = test: Subcutaneous tumors in nude mice, intratumoral oligonucleotide plus lipofectamine; format: in vivo
Protocol: (§2) RCC and A375 tumor cells (500,000 cells per tumor) were injected subcutaneously. The treatments, begun 8 days after tumor cell inoculation, was with 40 microliter of 25 micromolar SpA4-anti-hTR plus 1 microliter (2 microgram) lipofectamine injected in each tumor every day.

A375 tumors = test: as above; format: in vivo
Protocol: as §2

[2] = U373, 0.5 micromolar daily plus lipofectamine, 3 days

For “Sp5′A2′p(5′A2p)3-[(Bu)p]2-5′GCG CGG GGA GCA AAA GCA C3′-3′T5′ (antisense GCGCGGGGAGCAAAAGCAC; 5'-thiophosphate 2-5A tetramer, butanediol linkers, 3'-3'T cap, chemistry not fully specified) [spA4-anti-hTR, 2-5A tetramer linked by butanediol linkers to 19-mer antisense against human telomerase RNA nucleotides 76 to 94]”, which survival of mice ([1]; 9 weeks after inoculation of tumor cells, 3 nmol plus Lipofectamine intracranially on Days 21, 23, 25) is on record?
The survival of mice was 50%.

And the mice survived ([1]; at 62 days post-tumor implantation)?
Its mice survived is 50%.

What about the “survival of mice (in words)” value ([1]; intracranial injection) of the same substance?
The value was “Enhanced survival”.

And the “tumor growth (in words)” value (U251-MG tumors; 5 nmol intratumoral daily for 7 days)?
Its value is “significantly suppressed the growth; also recorded: failed to grow progressively”.

What about the “average net weight of the tumors after treatment” value (U251-MG tumors; 14 days treatment) of the same substance?
Its value is 54.0 ± 28.7 mg.

And the “further change in tumor size (in words)” value (U251-MG tumors; days 8-14 of the treatment compared with first 7 days)?
Its value is “only a marginal additional reduction in size”.

What about the “reduction in tumor size during the treatment period” value (U251-MG tumors) of the same substance?
The value was 48% and 50%.

And the “reduction in tumor size during the treatment period” value (U251-MG tumors; listed as 2-5A-anti-hTR)?
The value was 50%.

What about the “tumor growth (in words)” value (U373-MG tumors) of the same substance?
The value was “significantly suppressed the growth; also recorded: failed to grow progressively”.

And the “increase in the anti-tumor cell effect by use of lipofectamine” value (U373 cells; 0.5 micromolar once a day with lipofectamine versus without)?
Its value is “about 10 fold”.

What about the “effect on growth/viability (in words)” value (U373 cells; [2]) of the same substance?
The value was “specifically suppressed growth”.

What about the reduction in viability (U373 cells; [2]) of the same substance?
Its reduction in viability is “about 60%”.

And the “cell viability reduced to” value (U373 cells; U373, 0.5 micromolar daily plus lipofectamine, 7 days, two separate cultures)?
Its value is less than 2%.

What about the reduction in viability (U373 cells; U373, 0.5 micromolar daily plus lipofectamine, 8 days) of the same substance?
The reduction in viability was 90%.

And the “reduction of the dose required to block proliferation and survival of tumor cells using lipofectamine” value (U373 cells; with lipofectamine versus without)?
The value was 10 fold.

And the “cell death / effect on viability (in words)” value (U251-MG cells; 14 days)?
The value was “vast majority of cells can be killed”.

And the “reduction in cell viability” value (U251-MG cells; after 5 days)?
The value was 50%.

And the cells killed (U251-MG cells; over the 14 day period)?
The cells killed was 79%.

What about the “tumor cell growth (in words)” value (RCC tumors; RCC subcutaneous, oligonucleotide plus lipofectamine from day 8) of the same substance?
Its value is “Suppression”.

What about the “increase in tumor size” value (RCC tumors; RCC, 40 microliter of 25 micromolar plus lipofectamine intratumoral daily, seven day period) of the same substance?
The value was 14%.

And the “increase in tumor size” value (A375 tumors; A375, 40 microliter of 25 micromolar plus lipofectamine intratumoral daily, seven days)?
The value was 17%.

What about the “tumor cell growth (in words)” value (A375 tumors; A375 subcutaneous, oligonucleotide plus lipofectamine from day 8) of the same substance?
The value was “Suppression”.
